Reference: PMC5412352 (International Journal of Molecular Sciences, 2017)
“Also recorded” adds a separate entry of the source.

How the values were obtained:
[1] = target: T1, hGhrR (COS7 cells stably transfected with hGhrR) (Homo sapiens, UniProt Q92847); assay: Inositol phosphate accumulation assay, antagonistic potency with 10^-8 M ghrelin; type: cell-based
T1 construct: expressed in transfected cells
Description: Antagonistic properties at the hGhrR
antagonistic potency in an inositol phosphate accumulation assay (Table S1). The receptor was
Table S1. Inositol phosphate accumulation assay to determine antagonistic potencies of candidate
Compounds were analyzed by inositol phosphate accumulation in COS7 cells stably

rat σ2 receptor = target: T2, rat σ2 receptor (Rattus norvegicus, UniProt Q5U3Y7); assay: Selectivity radioligand displacement, [3H]DTG, rat liver homogenate; type: binding; conditions: [3H]DTG + 1 µM dextrallorphan
T2 construct: rat σ2 receptor = rat liver homogenate; from tissue; host or cells: rat liver homogenate
T2 sequence (Q5U3Y7 1-176): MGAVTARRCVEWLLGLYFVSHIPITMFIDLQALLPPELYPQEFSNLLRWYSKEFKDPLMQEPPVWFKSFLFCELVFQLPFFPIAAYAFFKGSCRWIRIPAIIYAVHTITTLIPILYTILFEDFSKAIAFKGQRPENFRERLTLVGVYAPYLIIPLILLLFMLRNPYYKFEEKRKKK
Description: […]
The incubations were terminated by rapid filtration via glass-fiber filters presoaked in PEI (0.3%, 60 min at rt), and the filter-bound radioactivity was counted by liquid scintillation counting (Tricarb, PerkinElmer).

adrenergic α1BRs = assay: Commercial screening by Eurofins Panlabs; type: binding
[2] = HPLC-based chromatographic hydrophobicity index on immobilized artificial membranes (CHI IAM); type: physicochemical; conditions: IAM PC DD2 column, acetonitrile / 50 mM ammonium acetate gradient
From the text: Physicochemical properties of a drug such as lipophilicity and non-specific binding to membranes and plasma proteins are crucial parameters of a potential radiotracer, in particular if it is supposed to pass the blood brain barrier (BBB). The lipophilicity (logD7.4) was estimated using the commercially available ACD/Labs-12.5 software and the non-specific binding was estimated by the high-performance liquid chromatography (HPLC)-based hydrophobicity index at immobilized artificial membranes (CHI IAM) for seven fluorine substituted candidate molecules and (S)-13 without fluorine (Table 3).
The chromatographic hydrophobicity index on immobilized artificial membranes (CHI IAM) was experimentally determined by a HPLC method described by Valko and co-workers using a IAM PC DD2 column (100 × 4.6 mm, […], Regis Technologies, IL, USA), a gradient of acetonitrile, and 50 mM ammonium acetate as eluent and acetanilide, acetophenone, 1,4-dinitrobenzene, anisole propiophenone, valerophenone, and octanophenone as references.

GhrR = target: GhrR; parameters: method as in PMID 22342626; conditions: previously published value; cited from earlier work
adrenergic α1ARs = assay: Commercial screening by Eurofins Panlabs; type: binding
muscarinic M2Rs = target: T3, muscarinic M2Rs (Homo sapiens, UniProt P08172); assay: Commercial screening by Eurofins Panlabs; type: binding
T3 construct: Eurofins Panlabs (Taiwan), contract screening
T3 sequence (P08172 1-466): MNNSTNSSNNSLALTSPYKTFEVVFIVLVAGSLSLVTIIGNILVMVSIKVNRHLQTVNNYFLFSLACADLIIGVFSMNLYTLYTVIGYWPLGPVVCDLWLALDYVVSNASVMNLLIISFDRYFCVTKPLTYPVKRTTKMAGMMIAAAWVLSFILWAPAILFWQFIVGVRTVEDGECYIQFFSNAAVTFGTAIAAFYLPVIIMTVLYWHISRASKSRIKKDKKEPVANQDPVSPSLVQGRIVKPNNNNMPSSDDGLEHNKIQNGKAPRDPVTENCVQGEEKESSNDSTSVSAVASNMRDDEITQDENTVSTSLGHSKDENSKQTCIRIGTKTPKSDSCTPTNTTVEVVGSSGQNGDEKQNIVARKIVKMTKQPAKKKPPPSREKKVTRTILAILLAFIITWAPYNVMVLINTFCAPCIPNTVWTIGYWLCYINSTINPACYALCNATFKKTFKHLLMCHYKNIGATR

[3] = target: hGhrR (COS7 cells stably expressing hGhrR-eYFP) (Homo sapiens, UniProt Q92847); assay: cell-based
serotonin 5-HT2BRs = target: T4, serotonin 5-HT2BRs (Homo sapiens, UniProt P41595); assay: Commercial screening by Eurofins Panlabs; type: binding
T4 construct: Eurofins Panlabs (Taiwan), contract screening
T4 sequence (P41595 whole entry): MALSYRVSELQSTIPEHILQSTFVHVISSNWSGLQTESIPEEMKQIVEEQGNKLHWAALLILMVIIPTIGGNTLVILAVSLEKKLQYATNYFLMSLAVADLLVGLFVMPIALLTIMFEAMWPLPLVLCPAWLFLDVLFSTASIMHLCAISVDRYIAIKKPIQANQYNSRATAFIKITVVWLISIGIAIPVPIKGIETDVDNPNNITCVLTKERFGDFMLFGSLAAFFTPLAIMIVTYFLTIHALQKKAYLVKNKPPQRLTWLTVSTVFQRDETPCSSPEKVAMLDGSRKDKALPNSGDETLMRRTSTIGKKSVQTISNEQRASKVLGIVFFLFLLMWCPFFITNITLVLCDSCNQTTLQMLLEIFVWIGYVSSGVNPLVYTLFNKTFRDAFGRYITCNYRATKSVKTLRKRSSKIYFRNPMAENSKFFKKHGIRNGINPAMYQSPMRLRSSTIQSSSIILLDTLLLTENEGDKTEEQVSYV

Chain of hGhrR (COS7 cells stably expressing hGhrR-eYFP) (Q92847 whole entry): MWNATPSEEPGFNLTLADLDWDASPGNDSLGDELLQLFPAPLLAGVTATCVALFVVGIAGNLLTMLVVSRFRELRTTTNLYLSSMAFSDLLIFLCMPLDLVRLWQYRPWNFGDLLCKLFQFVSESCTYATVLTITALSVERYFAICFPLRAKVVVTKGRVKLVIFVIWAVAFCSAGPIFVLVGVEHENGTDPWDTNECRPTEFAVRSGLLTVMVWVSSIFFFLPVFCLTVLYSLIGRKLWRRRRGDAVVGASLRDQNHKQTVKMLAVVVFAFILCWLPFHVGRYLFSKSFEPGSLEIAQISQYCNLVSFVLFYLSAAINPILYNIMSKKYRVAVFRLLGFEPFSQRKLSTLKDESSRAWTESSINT
T1 sequence (Q92847 whole entry): as above

IC50 ([1]; 5 min pre-stimulation with compound, then 10^-8 M ghrelin, read-out: IC50 (antagonistic potency)): 24.8 nM
Emax ([1]; COS-7, read-out: Emax (antagonistic efficacy)): 38 ± 4%
Ki (rat σ2 receptor): 87 ± 23 nM
CHI IAM [2]: 43.0
Emax ([3]; COS-7, mean ± SEM, refers to ghrelin Emax as 100%, 0% = constitutive receptor activity): ~60%
EC50 ([3]; EC50, 2 h stimulation in absence of ghrelin, COS7-hGhrR): 0.7 nM
EC50 ([3]; pEC50, mean ± SEM, 2 h stimulation in absence of ghrelin): 0.676 nM
Compound: Cc1nc2ccc(Oc3ccc(Br)cc3F)nc2c(=O)n1C[C@H]1CCCN(C(C)C)C1 [(S)-9, (S)-6-(4-Bromo-2-fluorophenoxy)-3-((1-isopropylpiperidin-3-yl)methyl)-2-methylpyrido[3,2-d]pyrimidin-4(3H)-one]
significant response (≥50% inhibition or stimulation) (adrenergic α1BRs): did not show significant responses; also recorded: did not show significant binding
Ki (GhrR): 0.01 nM
significant response (≥50% inhibition or stimulation) (adrenergic α1ARs): did not show significant responses; also recorded: did not show significant binding
significant response (≥50% inhibition or stimulation) (muscarinic M2Rs): did not show significant responses; also recorded: did not show significant binding
significant response (≥50% inhibition or stimulation) (serotonin 5-HT2BRs): did not show significant responses; also recorded: did not show significant binding
